In ChEMBL document CHEMBL4376876 (J Med Chem, 2020):

What follows are molecules tested on Mycobacterium tuberculosis (assay: Resistance factor, ratio of MIC for antimycobacterial activity against Mycobacterium tuberculosis H37Rv over expressing InhA to MIC for antimycobacterial activity against Mycobacterium tuberculosis H37Rv transfected with pMV261 empty vector).
Type: functional
NNC(=O)c1ccncc1 [ISONIAZID] was tested, and the Ratio was 31.
For CC(C)[C@H]1OC(=O)[C@H](C)[C@H](O)[C@H](Cc2cccnc2)NC(=O)[C@@H](NC(=O)c2ncccc2O)[C@@H](C)OC1=O, the Ratio was 8.
With C[C@H]1OC(=O)[C@@H](Cc2ccccc2)OC(=O)[C@H](C)[C@H](O)[C@H](Cc2cccnc2)NC(=O)[C@H]1NC(=O)c1ncccc1O the Ratio was greater than 4.
CC[C@H](C)[C@H]1OC(=O)[C@H](C)[C@H](O)[C@H](Cc2cccnc2)NC(=O)[C@@H](NC(=O)c2ncccc2O)[C@@H](C)OC1=O was tested, and the Ratio was 1.
Work on CC[C@H]1OC(=O)[C@H](C)[C@H](O)[C@H](Cc2cccnc2)NC(=O)[C@@H](NC(=O)c2ncccc2O)[C@@H](C)OC1=O yielded a Ratio greater than 4.
